Laboratory results taken from patent publication US8476197B2, “Aminopropenoates as fungicides” (priority 2009, dated 2013).
Marks after values point to notes of the source that are not given here.

settings: pH 2.7

SMILES	Log P
CCOC(=O)C(C#N)=C(NC(C)(C)C=C(Cl)Cl)c1sccc1C(F)(F)F [Compound 1103]	4.26^[a]
COC(=O)C(C#N)=C(NC(C)(C)C=C(Cl)Cl)c1sc(C)nc1C(F)(F)F [Compound 1104]	3.73^[a]
CCOC(=O)C(C#N)=C(NC(C)(C)C=C(Cl)Cl)c1sccc1Br [Compound 1105]	4.21^[a]
CCOC(=O)C(C#N)=C(NC(C)(C)C=C(Cl)Cl)c1cn(C)nc1C(F)F [Compound 1106]	3.31^[a]
CCOC(=O)C(C#N)=C(NC(C)CON=C(C)c1ccccc1)c1cccnc1Cl (stereo not shown) [Compound 1111]	3.96^[a]
CCOC(=O)C(C#N)=C(NC(C)CON=C(C)c1ccccc1)c1cn(C)nc1C(F)F (stereo not shown) [Compound 1112]	3.83^[a]
COC(=O)C(C#N)=C(NC1(C(F)(F)F)CCCCC1)c1cccnc1Cl [Compound 1113]	2.99^[a]
CCOC(=O)C(C#N)=C(NC(C)C1=NOCCO1)c1cccnc1Cl (stereo not shown) [Compound 1117]	2.11^[a]
CCNC(=O)C(C#N)=C(NC(C)c1ccncn1)c1cccnc1Cl (stereo not shown) [Compound 1118]	1.62^[a]
CC#CC(C)NC(=C(C#N)C(=O)NCC)c1cccnc1Cl (stereo not shown) [Compound 1119]	2.5^[a]
CCNC(=O)C(C#N)=C(NCC(C)c1nccs1)c1cccnc1Cl (stereo not shown) [Compound 1120]	2.14^[a]
CCOC(=O)C(C#N)=C(NC1CCCCC1C)c1cn(C)nc1C(F)F (stereo not shown) [Compound 1122]	3.6^[a]
CCOC(=O)C(C#N)=C(NC1CCC1)c1cn(C)nc1C(F)F [Compound 1123]	2.73^[a]
CCOC(=O)C(C#N)=C(NC1CC1)c1cn(C)nc1C(F)F [Compound 1124]	2.35^[a]
CCCCC(C)NC(=C(C#N)C(=O)OCC)c1cn(C)nc1C(F)F (stereo not shown) [Compound 1125]	3.58^[a]
CCOC(=O)C(C#N)=C(NC[Si](C)(C)C)c1cn(C)nc1C(F)F [Compound 1126]	3.35^[a]
C=CCNC(=C(C#N)C(=O)OCC)c1cn(C)nc1C(F)F [Compound 1127]	2.35^[a]
C#CCNC(=C(C#N)C(=O)OCC)c1cn(C)nc1C(F)F [Compound 1128]	2.13^[a]
CCOC(=O)C(C#N)=C(NC(CC(C)C)C(=O)OCC)c1cn(C)nc1C(F)F (stereo not shown) [Compound 1129]	3.53^[a]
CCOC(=O)C(C#N)=C(NC1CC1C)c1cn(C)nc1C(F)F (stereo not shown) [Compound 1130]	2.68^[a]
CCOC(=O)C(C#N)=C(NC1C2CCCCC21)c1cn(C)nc1C(F)F (stereo not shown) [Compound 1131]	3.44^[a]

SMILES	Log P
CCOC(=O)C(C#N)=C(NC1(C#N)CC1)c1cn(C)nc1C(F)F [Compound 1132]	2.1^[a]
CCOC(=O)C(C#N)=C(NC(C)C1CCC1)c1cn(C)nc1C(F)F (stereo not shown) [Compound 1133]	3.33^[a]
CCOC(=O)C(C#N)=C(NC(C)C1CC2CCC1C2)c1cn(C)nc1C(F)F (stereo not shown) [Compound 1134]	4.03^[a]
CCOC(=O)C(C#N)=C(NC(C)COCC(C)(C)C)c1cn(C)nc1C(F)F (stereo not shown) [Compound 1135]	4.08^[a]
CCOC(=O)C(C#N)=C(NC(C)CC1CC1)c1cn(C)nc1C(F)F (stereo not shown) [Compound 1136]	3.23^[a]
CCOC(=O)C(C#N)=C(NC(C(=O)NC)c1ccccc1)c1cn(C)nc1C(F)F (stereo not shown) [Compound 1137]	2.27^[a]
CCOC(=O)C(C#N)=C(NC(C)CC(=O)Nc1ccccc1C)c1cn(C)nc1C(F)F (stereo not shown) [Compound 1138]	2.68^[a]
CCOC(=O)CC(C)NC(=C(C#N)C(=O)OCC)c1cn(C)nc1C(F)F (stereo not shown) [Compound 1139]	2.66^[a]
CCOC(=O)C(C#N)=C(NC(C(=O)OC)c1ccccc1)c1cn(C)nc1C(F)F (stereo not shown) [Compound 1140]	2.94^[a]
CCOC(=O)C(C#N)=C(NC(C)C1CC=CCC1)c1cn(C)nc1C(F)F (stereo not shown) [Compound 1141]	3.62^[a]
CC#CC(C)NC(=C(C#N)C(=O)OCC)c1cn(C)nc1C(F)F (stereo not shown) [Compound 1142]	2.8^[a]
CC#CC1(NC(=C(C#N)C(=O)OCC)c2cn(C)nc2C(F)F)CCCC1 [Compound 1143]	3.39^[a]
CCOC(=O)C(C#N)=C(NC1CC2CCC1C2)c1cn(C)nc1C(F)F (stereo not shown) [Compound 1144]	3.46^[a]
CCOC(=O)C(C#N)=C(NC1CC1CC)c1cn(C)nc1C(F)F (stereo not shown) [Compound 1146]	3.04^[a]
CCOC(=O)C(C#N)=C(NC1CC1C(F)(F)F)c1cn(C)nc1C(F)F (stereo not shown) [Compound 1147]	2.75^[a]
CCOC(=O)C(C#N)=C(NC1CC1(C)C)c1cn(C)nc1C(F)F (stereo not shown) [Compound 1148]	3^[a]
CCOC(=O)C(C#N)=C(NC(C)c1ccc(F)cc1)c1cccnc1Cl (stereo not shown) [Compound 1149]	3.51^[a]
CCOC(=O)C(C#N)=C(NC(C)c1ccc(C)cc1)c1cccnc1Cl (stereo not shown) [Compound 1150]	3.87^[a]
CCOC(=O)C(C#N)=C(NC(C)c1ccccc1)c1cccnc1Cl (stereo not shown) [Compound 1151]	3.48^[a]
CCOC(=O)C(C#N)=C(NC(C)c1cccc(Cl)c1)c1cccnc1Cl (stereo not shown) [Compound 1152]	3.83^[a]
CCOC(=O)C(C#N)=C(Nc1ccc(OC)cc1)c1cccnc1Cl [Compound 1153]	2.98^[a]

SMILES	Log P
CCOC(=O)C(C#N)=C(Nc1ccc(C(C)C)cc1)c1cccnc1Cl [Compound 1154]	4.08^[a]
CCOC(=O)C(C#N)=C(NC(C)COc1ccccc1C)c1cccnc1Cl (stereo not shown) [Compound 1155]	4.01^[a]
CCOC(=O)C(C#N)=C(NC(C)CSc1ccc(Cl)cc1)c1cccnc1Cl (stereo not shown) [Compound 1156]	4.08^[a]
CCOC(=O)C(C#N)=C(NC(C)CSc1cc(Cl)ccc1Cl)c1cccnc1Cl (stereo not shown) [Compound 1157]	4.27^[a]
CCOC(=O)C(C#N)=C(NC(C)CSc1ccc(Cl)c(Cl)c1)c1cccnc1Cl (stereo not shown) [Compound 1158]	4.41^[a]
CCOC(=O)C(C#N)=C(NC(C)C(C)Sc1ccccc1)c1cccnc1Cl (stereo not shown) [Compound 1159]	4.13^[a]
CCOC(=O)C(C#N)=C(NC(C)COc1cccc(C(F)(F)F)c1)c1cccnc1Cl (stereo not shown) [Compound 1160]	4.13^[a]
CCOC(=O)C(C#N)=C(NC(C)COc1ccccc1)c1cccnc1Cl (stereo not shown) [Compound 1161]	3.58^[a]
CCOC(=O)C(C#N)=C(NC(C)COCc1ccccc1)c1cccnc1Cl (stereo not shown) [Compound 1162]	3.71^[a]
CCOC(=O)C(C#N)=C(NC(C)COCc1ccccc1F)c1cccnc1Cl (stereo not shown) [Compound 1163]	3.69^[a]
CCOC(=O)C(C#N)=C(NC(C)COc1ccccc1Cl)c1cccnc1Cl (stereo not shown) [Compound 1164]	3.78^[a]
CCOC(=O)C(C#N)=C(NC(C)COc1ccc(C)cc1)c1cccnc1Cl (stereo not shown) [Compound 1165]	3.94^[a]
CCOC(=O)C(C#N)=C(NC(C)COc1ccc(F)cc1)c1cccnc1Cl (stereo not shown) [Compound 1166]	3.62^[a]
CCOC(=O)C(C#N)=C(NC(C)CCc1ccccc1)c1cccnc1Cl (stereo not shown) [Compound 1167]	3.92^[a]
CCOC(=O)C(C#N)=C(Nc1ccccc1OC(C)C)c1cccnc1Cl [Compound 1168]	3.8^[a]
CCOC(=O)C(C#N)=C(Nc1ccc(OC(F)F)cc1)c1cccnc1Cl [Compound 1169]	3.19^[a]
CCOC(=O)C(C#N)=C(Nc1ccc(SC)cc1)c1cccnc1Cl [Compound 1170]	3.37^[a]
CCOC(=O)C(C#N)=C(NCc1ccccc1SC)c1cccnc1Cl [Compound 1171]	3.37^[a]
CCOC(=O)C(C#N)=C(NC(C)COCc1ccccc1Cl)c1cccnc1Cl (stereo not shown) [Compound 1172]	4.06^[a]
CCOC(=O)C(C#N)=C(NC(C)COc1cccc(OC)c1)c1cccnc1Cl (stereo not shown) [Compound 1173]	3.58^[a]
CCOC(=O)C(C#N)=C(NC(C)CC)c1cccnc1Cl (stereo not shown) [Compound 1174]	3^[a]

SMILES	Log P
CCCCCNC(=C(C#N)C(=O)OCC)c1cccnc1Cl [Compound 1175]	3.53^[a]
C=CCCCC(C=C)NC(=C(C#N)C(=O)OCC)c1cccnc1Cl (stereo not shown) [Compound 1176]	4.01^[a]
CCOC(=O)C(C#N)=C(NC(C)C1CC2CCC1C2)c1cccnc1Cl (stereo not shown) [Compound 1177]	4.39^[a]
CCOC(=O)C(C#N)=C(NC(C)COCC(C)(C)C)c1cccnc1Cl (stereo not shown) [Compound 1178]	4.34^[a]
CCOC(=O)C(C#N)=C(NC(C)COc1c(C)cccc1C)c1cccnc1Cl (stereo not shown) [Compound 1180]	4.26^[a]
C#CC(C)NC(=C(C#N)C(=O)OCC)c1cccnc1Cl (stereo not shown) [Compound 1181]	2.66^[a]
CCOC(=O)C(C#N)=C(NC(C)C1(Cl)CC1)c1cccnc1Cl (stereo not shown) [Compound 1182]	3.33^[a]
CCOC(=O)C(C#N)=C(NCCOC)c1cccnc1Cl [Compound 1183]	2.17^[a]
CCOC(=O)C(C#N)=C(NCCCCO)c1cccnc1Cl [Compound 1184]	1.75^[a]
CCOC(=O)C(C#N)=C(NCCC(C)C)c1cccnc1Cl [Compound 1185]	3.44^[a]
CCOC(=O)C(C#N)=C(NC1CCC1)c1cccnc1Cl [Compound 1186]	2.92^[a]
CCOC(=O)C(C#N)=C(NC(C)CCCC(C)C)c1cccnc1Cl (stereo not shown) [Compound 1187]	4.62^[a]
CCCCCC(C)NC(=C(C#N)C(=O)OCC)c1cccnc1Cl (stereo not shown) [Compound 1188]	4.26^[a]
CCOC(=O)C(C#N)=C(NC1CC1CC)c1cccnc1Cl (stereo not shown) [Compound 1190]	3.23^[a]
CCOC(=O)C(C#N)=C(NC(C)C1CCC1)c1cccnc1Cl (stereo not shown) [Compound 1191]	3.55^[a]
CCOC(=O)C(C#N)=C(NC(C)CC(=O)Nc1ccccc1C)c1cccnc1Cl (stereo not shown) [Compound 1192]	2.8^[a]
CCOC(=O)C(C#N)=C(NC(C)C(=O)Nc1ccc2ccccc2c1)c1cccnc1Cl (stereo not shown) [Compound 1193]	3.51^[a]
CCOC(=O)C(C#N)=C(NC(C)C(=O)OCC)c1cccnc1Cl (stereo not shown) [Compound 1194]	2.82^[a]
CCOC(=O)C(C#N)=C(NC(C(=O)OC)c1ccccc1)c1cccnc1Cl (stereo not shown) [Compound 1195]	3.08^[a]
CCOC(=O)C(C#N)=C(NC(CC(C)C)C(=O)OCC)c1cccnc1Cl (stereo not shown) [Compound 1196]	3.89^[a]

same assay, conditions: pH 7.5

SMILES	Log P
CCOC(=O)C(C#N)=C(NC(C)COS(C)(=O)=O)c1cccnc1Cl (stereo not shown) [Compound 1107]	2.17
CCOC(=O)C(C#N)=C(NC(C)CSC#N)c1cccnc1Cl (stereo not shown) [Compound 1109]	2.35
